Test results reported in publication PMC6058720, “Dual-ligand modified liposomes provide effective local targeted delivery of lung-cancer drug by antibody and tumor lineage-homing cell-penetrating peptide” (Drug Delivery, 2018).
Values after ≈ are worked out from the molar mass of the structure shown.

Assays:
[1] = In vitro drug release study (dialysis, PBS pH 7.4); assay type: physicochemical; conditions: PBS pH 7.4, 37 °C, over 96 h, dialysis under sink conditions
Description: Briefly, 1 mL of dl-TPL-lip, CA IX-TPL-lip, CPP33-TPL-lip, TPL-lip, and free TPL solution (0.05 mg/mL) was placed into dialysis tubes with a molecular cut-off of MWCO 12–14 kDa and dialyzed in 10 mL of PBS (pH 7.4) at 37 °C. At predetermined time intervals, 100 μL of release medium was taken out and replaced with equal volume of fresh medium. The concentration of TPL in release medium was then determined by UPLC.

[2] = Pharmacokinetics study after pulmonary (endotracheal) administration to rats; design: species or system Sprague Dawley rats; conditions: rat, in vivo, 0.5 mg/kg
Description: Sprague–Dawley (SD) rats were divided randomly into five groups (n = four per group). Rats were fasted for 12 h before the experiment, but allowed water ad libitum. Free TPL, TPL-lip, CPP33-TPL-lip, CA IX-TPL-lip, and dl-TPL-lip were administered directly via pulmonary delivery using a Microsprayer Aerosolizer Pulmonary Aerosol Kit for Mouse Model PAK-MSA (Penn-Century, Inc. Wyndmoor, PA19038, USA) at a dose of 0.5 mg/kg. Blood samples (0.4 mL) were obtained before dosing and at designated time points (0.083, 0.5, 1, 2, 4, 6, 8, 12 h). The samples were collected into heparinized tube from the suborbital veins and were centrifuged for 10 min at 4,000 rpm. The plasma was analyzed by Agilent 1290 Ultra High Performance Liquid Chromatograph with Agilent 6460 Triple Quadrupole Mass Spectrometer system (UHPLC-QQQ MS/MS, Santa Clara, USA) (Xue et al., [2012]; Zhuang et al., [2013]).
The TPL pharmacokinetic parameters in […] after endotracheal administration were calculated and summarized by DAS 2.1.1. Statistical analyses for anti-cancer effect study were evaluated by two-way ANOVA with Bonferroni posttests using GraphPad Prism 6 (GraphPad Software, Inc, La Jolla, USA). […]
44 Analytical method for pharmacokinetics study
45 Hydrocortisone was added (50 μL, 200 ng/mL) as an internal standard (IS) to 0.2
46 mL of plasma. The samples were mixed, and extracted with ethyl acetate (750 μL)
47 followed by vortexing for 4min and centrifuging for 10min at 8000 rpm. The upper
48 organic phase was carefully transferred and e vaporated to dryness in vacuum. The
49 residues were dissolved in 100μL methanol and centrifuged at 4000rpm for 10 min,
50 then the supernatant was collected and injected into the Agilent 1290 Ultra High
51 Performance Liquid Chromatograph with Agilent 6460 Triple Quadrupole Mass
52 Spectrometer system (UHPLC-QQQ MS/MS).
53 Chromatography conditions: Waters Acquity BEH C18 (2.1×50 mm); Mobile phase
54 0.1% formic acid in water: 0.1% formic acid in acetonitrile =80:20 v/v; Flow rate 0.35
55 mL/min; Running time 10 min.
56 Mass spectrometer conditions: Ion Source Agilent Jet Stream electro spray
57 ionization (AJS ESI); Positive mode; Gas Temperature 300 °C; Gas flow rate 8 L/min;
58 Nebulizer 40 psi; SheathGasHeater 350°C; SheathGasFlow 8 L/min; Capillary 3500
60 Firstly, optimization of mass spectrometry was initiated by automatic tuning of the
61 instrument (Figure S1). Method validation was conducted before the sample analysis.
62 The specificity of the established method was assessed by comparing the
63 chromatograms of blank plasma, blank plasma with TPL, blank plasma with IS, and
64 plasma after endotracheal administration (Figure S2). The calibration curve in rat
65 plasma was linear over the ranges 10-2500 ng/mL in rat plasma (y=0.375035x +
67 accuracy and precision both intra-day and inter-day were less than 10%. The method
68 was sufficiently accurate and consistent for proceeding for the biological analysis of
69 TPL (Table S1). Therefore, the established method was applied to the analysis of rat

[3] = test system: orthotopic lung tumor (A549-Red-FLuc cells); test: Anti-cancer effect in orthotopic mice model of lung cancer (bioluminescence imaging); assay type: in vivo, BALB/c nu/nu mice; conditions: pulmonary delivery, 0.3 mg/kg, four doses; control increased ∼6-fold; n = 5
Description: An orthotopic lung tumor-bearing mice model was established as previously reported. Briefly, the male BALB/c nu/nu mice (7–8 weeks) were anesthetized with 5% of chloral hydrate and 100 μL of A549-Red-FLuc cells (2 × 10^6 cells) solution in Matrigel (1:1). Experimental solutions were injected percutaneously into the right lateral thorax of each mouse using a 1 mL syringe with 29-gauge needle. On day seven after tumor cell inoculation, bioluminescence was measured using the IVIS Lumina XR system (Caliper, Hopking, MA) to check the successful establishment of lung cancer. D-luciferin substrate (i.p., 150 mg/kg in 0.9% saline solution) was injected 15 min before bioluminescence imaging. On day 19 after tumor cell inoculation, the mice were sacrificed and lungs were immediately resected.
On day seven following tumor cells inoculation, the orthothopic lung tumor-bearing mice (n = 30) were grouped into six treatment groups based on equivalent signal intensity of the tumor bioluminescence: Free TPL, TPL-lip, CA IX-TPL-lip, CPP33-TPL-lip, dl-TPL-lip, and control group with saline. […] Tumor growth was monitored weekly by bioluminescence imaging as before, during, and after the TPL treatment. Body weight of the mice was recorded weekly during the course of the study. […]
The TPL pharmacokinetic parameters in mice after endotracheal administration were calculated and summarized by DAS 2.1.1. […]

[4] = design: method as in Chen et al., [2012a]; Reno et al., [2015]; Li et al., [2016]; conditions: ref Chen et al., [2012a]; Reno et al., [2015]; Li et al., [2016]; cited from earlier work
[5] = Sprague-Dawley, inhaled or intranasal, endotracheal administration, plasma TPL, n = 4

## CC(C)[C@]12O[C@H]1[C@@H]1O[C@]13[C@]1(O[C@H]1C[C@H]1C4=C(CC[C@@]13C)C(=O)OC4)[C@@H]2O [Free TPL, Triptolide]
[1]
  TPL release profile: rapid release profile
[2]; [5]
  AUC(0-inf): 225 ± 63.8 ng·h/mL
  AUC(0-t): 186 ± 36.5 ng·h/mL
  Cmax: 188 ± 42.7 ng/mL
  Tmax: 4.98 min
[2]
  Cmax of TPL in blood compared to liposomal TPL: three-fold higher
  t1/2: 2.98 ± 0.54 H
[3]
  Increase of tumors (bioluminescence) on day 31: ~3 fold
[4]
  Solubility in water: 0.017 mg/mL (≈ 47.2 µM)
